Like-named read-outs stand apart in the source and are kept apart here.
Key:
[1] = Pharmacokinetics analysis in plasma of mice; assay type: in vivo, BALB/c mice; conditions: for MRT last: read-out: MRT(0–t)
Procedure: To study the relationship between pharmacokinetic characteristics and treatment efficacy in vivo, compounds were administered by oral (50 mg/kg) and intramuscular (12.5 mg/kg) methods to healthy BALB/c mice ([…]). Subgroups of 3 mice each were bled at 0.25, 0.5, 1, 2, 4, 8, 16, 24, 32, and 48 h post-administration. Then, 300 μl samples of plasma were collected and centrifuged at 2,500 g for 15 min. The compounds in the plasma were extracted on Oasis HLB cartridges (Waters, Massachusetts, USA) with praziquantel as the internal standard. The HPLC-HRMS system used for separation and analysis consisted of an Accela 1250 pump, a PAL HTC autosampler, an Accela PDA detector and an Xcalibur data system (Thermo Fisher Scientific, Waltham, MA, USA). Compounds were separated on a 3-μm Waters Atlantis 2.1 mm × 100 mm column (Massachusetts, USA) with a mobile phase containing methanol and formic acid at a flow rate of 0.35 ml/min. The data were analyzed by the non-compartmental model present in DAS 2.0 (Drug Analysis System, Shanghai University of T.C.M, China). Detailed pharmacokinetic experimental methods, including a representative HPLC-MS chromatogram, a standard curve, and a plot used to confirm precision, are shown in the Supplementary Data.

E. multilocularis = assay: Compound efficacy in E. multilocularis-infected mice; conditions: for deaths of mice during the 28-days treatment: n = 10; for treatment efficacy versus control group, in words: 25 and 50 mg/kg/day oral; for treatment efficacy versus control group, in words / Mean cyst weight reduction (inhibition rate): 28 days; for Mean cyst weight reduction (inhibition rate): infected BALB/c mice
Procedure: E. multilocularis-infected animals [BALB/c mice (SLAC Laboratory Animal Center)] were maintained by serial i.p. transplantation passages through for 6 months, the details can be found in our published paper (Liu et al., [2019]). Eighty infected BALB/c mice were prepared for in vivo treatment experiments. Parasite materials were isolated from the peritoneal cavity of the infected animals and homogenized with Hanks' balanced salt solution (HBSS). Then, after passing the parasite homogenate through a 60-mesh sieve, the E. multilocularis PSCs were collected and rinsed 5~8 times. The viability of the PSCs was determined by the methylene blue exclusion method (Liu et al., [2018]), and PSCs with > 95% viability were used in the following experiments. The PSCs were cultured in RPMI 1,640 medium supplemented with 10% CS and antibiotics (100 U/ml penicillin G and 100 μg/ml streptomycin) at 37°C in 5% CO2.
The remaining mice were orally administered 1% tragacanth solution (1% TRA) as a control. All of the mice were euthanized 2 weeks after finishing the treatment, and all of the cysts were isolated and weighed. The efficacy of the treatments was assessed based on the mean cyst weight as previously described (Liu et al., [2015]).
The LC50 and Tox50 values were calculated by the probability unit method with SPSS version 17.0. The differences in mean cyst weight were analyzed by ANOVA in SPSS 17.0, and P < 0.05 was considered statistically significant.

Chang liver cells = assay: Cytotoxicity test, Chang liver cells (CCK-8); assay type: cell-based; conditions: for Tox50 Changliver cell: 72 h, CCK-8, 6.25~100 μM; for inhibition at 100 µM: Chang liver, read-out: inhibition rate, Chang liver cell
Procedure: (§1) Cytotoxicity was determined using Chang liver cells and A172 cells in DMEM with 10% FBS as previously described (Liu et al., [2018]). The final concentrations of the test compounds were 3.125~50 μM for A172 cells and 6.25~100 μM for Chang liver cells. After 72 h, the cell viabilities were determined using a CCK-8 kit. The concentration that induced 50% cell toxicity (Tox50) was then calculated.

[2] = tested on: E. multilocularis protoscoleces; assay: In vitro drug screen with E. multilocularis protoscoleces (methylene blue exclusion); assay type: cell-based; conditions: Echinococcus multilocularis, read-out: LC50 E. multilocularis PSC
Procedure: In vitro treatment of PSCs was performed in 96-well microtiter plates (Costar, USA) containing 100 PSCs per 200 μl. A solution of the test compound (6.25~100 μM) was added to each well. Nitazoxanide and mebendazole (25 μM) were used as positive controls, while RPMI 1640 medium and RPMI 1640 with 0.25% DMSO were used as negative controls. […] All experiments were carried out in triplicate and repeated at least twice.

A172 cells = assay: Cytotoxicity test, A172 cells (CCK-8); assay type: cell-based; conditions: for Tox50 A172 cell: 72 h, CCK-8, 3.125~50 μM; for effect on proliferation of cancer cells (A172 cells), in words: CCK-8
Procedure: as §1

[3] = Pharmacokinetics analysis in plasma of mice; assay type: in vivo, BALB/c mice; conditions: drug and plasma samples left overnight
[4] = BALB/c, im, mouse plasma, intramuscular 12.5 mg/kg
[5] = BALB/c, mouse, plasma, im, 12.5 mg/kg, intramuscular 12.5 mg/kg, read-out: Cmax
[6] = BALB/c, mouse, plasma, po, 50 mg/kg, oral 50 mg/kg, read-out: Cmax
[7] = BALB/c, mouse plasma, oral 50 mg/kg
[8] = mouse plasma, intramuscular 12.5 mg/kg
[9] = 72 h incubation, 6.25~100 μM, methylene blue exclusion

OC(COc1ccc(F)cc1)CN1CCN(C(c2ccccc2)c2ccccc2)CC1 (stereo not drawn) [BTB4]
Tmax [1, 4]: 4.67 ± 3.06 h | MRT last [1, 4]: 16 ± 1.13 h | Cmax [1, 5]: 86.4 ± 4.02 ng/mL | Cmax [1, 6]: 225 ± 55.4 ng/mL | Tmax [1, 7]: 2 h | MRT last [1, 7]: 8.08 ± 1.55 h | AUC(0–t) [1, 8]: 1589.90 ± 165.13 ng·h/mL | AUC(0–t) ([1]; mouse plasma, oral 50 mg/kg): 1692.29 ± 341.00 ng·h/mL | deaths of mice during the 28-days treatment (E. multilocularis; 25 mg/kg/day oral): 2 mice | deaths of mice during the 28-days treatment (E. multilocularis; 50 mg/kg/day oral): 4 mice | treatment efficacy versus control group, in words (E. multilocularis): ineffective

COc1cccc(NC(=O)CN(C)CC(=O)Nc2ccc(F)c(Cl)c2)c1 [Compound S1]
Tox50 Changliver cell (Chang liver cells): 43.98 ± 1.38 µM | LC50 [2, 9]: 20.4 ± 0.51 µM

O=C(CC1CCC(c2c[nH]c3ccccc23)CC1)Nc1cccc(Cl)c1 (stereo not drawn) [Compound S5]
Tox50 Changliver cell (Chang liver cells): 42.44 ± 0.34 µM | LC50 [2, 9]: 18.6 ± 1 µM | Tox50 A172 cell (A172 cells): 11.98 ± 0.91 µM | effect on proliferation of cancer cells (A172 cells), in words (A172 cells): inhibited the proliferation

O=C(CC1CCC(c2c[nH]c3ccccc23)CC1)Nc1cc(Cl)ccc1Cl (stereo not drawn) [Compound S6]
Cmax [1, 6]: 1 ng/mL | Tmax [1, 7]: 4.33 ± 3.51 h | MRT last [1, 7]: 4.34 ± 2.59 h | plasma concentration, in words [1, 8]: below the detection limit | AUC(0–t) ([1]; mouse plasma, oral 50 mg/kg): 5.10 ± 4.64 ng·h/mL | Cmax ([1]; mouse plasma, oral 50 mg/kg, 50 mg/kg): 1.55 ± 1.01 ng/mL | inhibition at 100 µM (Chang liver cells): 24.6% | LC50 ([2]; 72 h): 17 ± 0.93 µM | Tox50 A172 cell (A172 cells): 11.00 ± 5.00 µM | effect on proliferation of cancer cells (A172 cells), in words (A172 cells): inhibited the proliferation | Mean cyst weight reduction (inhibition rate) (E. multilocularis; 25 mg/kg/day oral gavage): 9.53% | Mean cyst weight reduction (inhibition rate) (E. multilocularis; 50 mg/kg/day oral gavage): 14.43% | treatment efficacy versus control group, in words (E. multilocularis): no significant difference | stability in plasma samples: detectable concentration [3]: greatly reduced

Cc1ccc(C)c(NC(=O)CC2CCC(c3c[nH]c4ccccc34)CC2)c1 (stereo not drawn) [Compound S11]
inhibition at 100 µM (Chang liver cells): 42.1% | LC50 [2, 9]: 18.7 ± 0.87 µM | Tox50 A172 cell (A172 cells): 22.72 ± 1.37 µM | effect on proliferation of cancer cells (A172 cells), in words (A172 cells): inhibited the proliferation

CN(CC(=O)Nc1cccc(F)c1)CC(=O)Nc1cccc2ccccc12 [Compound S16]
inhibition at 100 µM (Chang liver cells): 34.6% | LC50 [2, 9]: 17.4 ± 0.2 µM | Tox50 A172 cell (A172 cells): 21.00 ± 6.24 µM | effect on proliferation of cancer cells (A172 cells), in words (A172 cells): inhibited the proliferation

C[C@H](C(=O)N(C)Cc1ccccc1)N(C)CC(=O)Nc1cccc2ccccc12 [Compound S19]
inhibition at 100 µM (Chang liver cells): 36.5% | LC50 [2, 9]: 18.8 ± 1.7 µM | Tox50 A172 cell (A172 cells): 22.54 ± 1.79 µM | effect on proliferation of cancer cells (A172 cells), in words (A172 cells): inhibited the proliferation

CCN(CC(=O)Nc1cc(Cl)cc(Cl)c1)Cc1nc(=O)c2ccc(Cl)cc2[nH]1 [Compound S28]
Tox50 Changliver cell (Chang liver cells): 35.41 ± 0.62 µM | LC50 [2, 9]: 19.9 ± 0.31 µM | Tox50 A172 cell (A172 cells): 20.99 ± 4.12 µM | effect on proliferation of cancer cells (A172 cells), in words (A172 cells): inhibited the proliferation

Cc1ccnc(NC(=O)C2CCN(CCC(=O)Nc3ccc4c(c3)CCC4)CC2)c1 [Compound S31]
LC50 ([2]; 72 h): 19.2 ± 0.8 µM

CN(C)[C@@H](CNC(=O)C[C@H]1Sc2ccc(Cl)cc2NC1=O)Cc1ccccc1 [Compound S39]
Tox50 Changliver cell (Chang liver cells): 51.46 ± 3.34 µM | LC50 [2, 9]: 17.7 ± 0.74 µM

COc1ccc([C@H]2CCCN2CC(=O)NCc2cccc(Cl)c2)c(OC)c1 [Compound S59]
Tox50 Changliver cell (Chang liver cells): 66.53 ± 2.99 µM | LC50 [2, 9]: 19.6 ± 0.56 µM

OC(CN1CCCCC1)Cn1c2ccc(Cl)cc2c2cc(Cl)ccc21 (stereo not drawn) [HT3]
Tmax [1, 4]: 1 h | MRT last [1, 4]: 18.1 ± 2.38 h | Cmax [1, 5]: 39.6 ± 11.2 ng/mL | Cmax [1, 6]: 122 ± 42.6 ng/mL | Tmax [1, 7]: 0.33 ± 0.14 h | MRT last [1, 7]: 4.16 ± 0.85 h | deaths of mice during the 28-days treatment (E. multilocularis; 25 mg/kg/day oral): 2 mice | deaths of mice during the 28-days treatment (E. multilocularis; 50 mg/kg/day oral): 3 mice | treatment efficacy versus control group, in words (E. multilocularis): ineffective

COC(=O)Nc1nc2ccc(C(=O)c3ccccc3)cc2[nH]1 [MBZ, mebendazole, reference compound]
Mean cyst weight reduction (inhibition rate) (E. multilocularis; 25 mg/kg/day oral gavage): 39.66% | deaths of mice during the 28-days treatment (E. multilocularis; 25 mg/kg/day oral): 1 mice
